Measured values as given in ChEMBL document CHEMBL1201862, “PubChem BioAssay data set” (2004).
Activity calls are given as the source filed them. Rule as the data show it, for most assays here: actives have a measured EC50 and inactives only a lower limit.

Assays:
[1] = biological target: T1, Microphthalmia-associated transcription factor (Homo sapiens, UniProt O75030); assay: TRPM1 promoter luciferase signal decrease, dose response, MITF inhibitor project, cell-based, SK-MEL-5, cherry-picked, set 3 (AID 493073); assay type: functional
T1 sequence (O75030 whole entry): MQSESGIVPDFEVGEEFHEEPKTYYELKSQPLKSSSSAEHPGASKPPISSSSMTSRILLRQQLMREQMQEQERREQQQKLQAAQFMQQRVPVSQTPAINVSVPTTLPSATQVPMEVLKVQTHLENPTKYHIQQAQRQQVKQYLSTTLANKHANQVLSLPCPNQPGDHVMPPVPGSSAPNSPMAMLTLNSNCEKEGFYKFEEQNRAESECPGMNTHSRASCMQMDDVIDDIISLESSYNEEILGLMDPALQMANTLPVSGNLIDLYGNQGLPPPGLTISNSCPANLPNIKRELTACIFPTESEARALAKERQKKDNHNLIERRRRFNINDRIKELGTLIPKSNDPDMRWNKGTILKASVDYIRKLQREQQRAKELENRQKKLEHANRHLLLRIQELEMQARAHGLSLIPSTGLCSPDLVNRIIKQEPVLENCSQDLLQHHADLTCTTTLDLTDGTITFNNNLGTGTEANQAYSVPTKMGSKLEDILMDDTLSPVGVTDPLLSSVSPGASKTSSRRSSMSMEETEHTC

[2] = cytotoxicity toward NIH3T3 fibroblasts, dose response, counter-screen, cell-based, ATP luminescence, mouse fibroblasts (AID 2010); assay type: functional;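 also: cells exposed to compound for about 90 hours before reading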
[3] = C. albicans growth with fluconazole, confirmation, fluorescence, retest (AID 2467); assay type: functional, cell-based
A-375 = assay: A375 melanoma cell viability reduction, dose response, counter-screen for MITF modulator project, cherry-pick samples, set 2 (AID 540335); assay type: functional, cell-based; conditions: Homo sapiens
[4] = inhibitors of intracellular T. cruzi replication, confirmation, NIH3T3 host cells, beta-gal luminescence (AID 2044); assay type: functional, cell-based;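 also: intracellular parasites grown in NIH/3T3 mouse fibroblasts as host cells; luminescent beta-galactosidase reporter signal from transgenic T. cruzi replicating inside host cells; inhibitors lower the luminescence signal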
[5] = NIH-3T3 fibroblast cytotoxicity, dose response, cytotoxicity control, cell-based, fluorescence, Alamar Blue, secondary assay (AID 2327); assay type: functional;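 also: NIH-3T3 mouse fibroblasts cultured with fluconazole at 8 µg/mL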
Protein RecA = biological target: T2, Protein RecA (Mycobacterium tuberculosis, UniProt P9WHJ3); assay: Fluorescence Cell-Free Homogeneous Dose Retest to Identify Inhibitors of RecA-Intein Splicing Activity. [Related pubchem assays (depositor defined):AID2097, AID2223, AID489010, AID492950]; assay type: functional
T2 sequence (P9WHJ3 whole entry): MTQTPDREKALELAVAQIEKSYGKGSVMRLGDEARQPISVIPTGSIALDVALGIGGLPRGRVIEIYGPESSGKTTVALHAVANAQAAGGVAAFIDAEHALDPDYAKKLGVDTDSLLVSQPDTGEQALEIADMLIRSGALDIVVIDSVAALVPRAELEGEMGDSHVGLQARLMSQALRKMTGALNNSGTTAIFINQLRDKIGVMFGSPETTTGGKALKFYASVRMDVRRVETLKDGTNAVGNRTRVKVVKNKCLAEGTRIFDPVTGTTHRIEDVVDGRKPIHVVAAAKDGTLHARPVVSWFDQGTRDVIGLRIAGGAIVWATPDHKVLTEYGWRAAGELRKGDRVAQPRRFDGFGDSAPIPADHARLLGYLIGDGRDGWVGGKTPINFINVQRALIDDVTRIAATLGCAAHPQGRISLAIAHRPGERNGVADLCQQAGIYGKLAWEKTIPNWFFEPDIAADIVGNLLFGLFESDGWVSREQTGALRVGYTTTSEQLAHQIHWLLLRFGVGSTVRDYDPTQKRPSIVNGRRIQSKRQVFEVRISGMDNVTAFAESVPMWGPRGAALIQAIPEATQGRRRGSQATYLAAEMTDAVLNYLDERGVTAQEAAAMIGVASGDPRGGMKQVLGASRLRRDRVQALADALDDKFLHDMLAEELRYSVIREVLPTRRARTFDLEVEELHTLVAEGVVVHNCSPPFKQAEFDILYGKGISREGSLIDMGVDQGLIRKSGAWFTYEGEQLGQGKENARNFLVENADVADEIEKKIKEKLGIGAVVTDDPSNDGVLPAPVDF

[6] = biological target: T3, Replicative DNA helicase DnaB (Mycobacterium tuberculosis, UniProt P9WMR3); assay: DnaB intein splicing inhibitors, dose response, biochemical, cell-free fluorescence (AID 449749); assay type: functional
T3 sequence (P9WMR3 whole entry): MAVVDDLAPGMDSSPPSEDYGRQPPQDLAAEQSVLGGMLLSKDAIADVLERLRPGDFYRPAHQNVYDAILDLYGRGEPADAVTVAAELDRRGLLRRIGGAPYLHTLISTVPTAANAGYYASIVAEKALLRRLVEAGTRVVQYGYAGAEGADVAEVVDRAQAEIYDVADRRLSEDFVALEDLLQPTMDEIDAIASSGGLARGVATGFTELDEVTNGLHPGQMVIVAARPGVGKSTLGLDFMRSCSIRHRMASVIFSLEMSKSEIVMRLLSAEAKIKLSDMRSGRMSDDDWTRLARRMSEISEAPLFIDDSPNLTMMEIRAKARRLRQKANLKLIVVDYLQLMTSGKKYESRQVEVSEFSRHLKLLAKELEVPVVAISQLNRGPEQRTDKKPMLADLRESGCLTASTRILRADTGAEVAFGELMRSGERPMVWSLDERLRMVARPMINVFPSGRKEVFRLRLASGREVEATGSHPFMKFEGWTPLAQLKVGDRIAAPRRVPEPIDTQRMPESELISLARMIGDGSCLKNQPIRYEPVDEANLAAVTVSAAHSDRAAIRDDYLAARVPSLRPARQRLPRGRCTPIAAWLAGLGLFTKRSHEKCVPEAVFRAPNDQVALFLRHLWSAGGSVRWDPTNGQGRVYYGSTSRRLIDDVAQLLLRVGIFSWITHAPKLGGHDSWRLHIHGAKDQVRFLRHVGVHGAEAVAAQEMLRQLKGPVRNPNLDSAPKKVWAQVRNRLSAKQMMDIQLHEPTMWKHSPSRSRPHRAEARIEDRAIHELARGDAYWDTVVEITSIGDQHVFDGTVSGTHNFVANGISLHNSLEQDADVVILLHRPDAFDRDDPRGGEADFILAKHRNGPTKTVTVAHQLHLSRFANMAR

HEK293 [7] = assay: cells; conditions: Homo sapiens
HEK293 [8] = assay: cells; conditions: Homo sapiens; remark: listed apart in the source
[9] = cytotoxicity toward DRD oncogenic fibroblasts, dose response, cell-based, non-viral oncogenic, luminescence (AID 1934); assay type: functional; conditions: Homo sapiens
[10] = cytotoxicity in HEK-293T cells, dose response, cytotoxicity control for TCR NF-kB inhibitor project, luminescence, T-cell screen hits (AID 489026); assay type: functional, cell-based;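 also: cells exposed to compound about 14 hours before the viability readout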
BJ [11] = assay: cytotoxicity toward BJ-TERT-LT-ST fibroblasts, dose response, cell-based, RAS-independent, luminescence (AID 1935); assay type: functional; conditions: Homo sapiens;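 also: BJ fibroblasts immortalized with TERT plus LT and ST oncogenes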
[12] = inhibitors of firefly luciferase expression or activity, dose response, H4 neuroglioma cells, luminescence (AID 1990); assay type: functional, cell-based
[13] = inhibitors of SNCA 5'UTR-driven reporter translation, confirmation, H4 neuroglioma cells, luminescence (AID 1988); assay type: functional, cell-based
BJ [14] = assay: cells; assay type: functional, cell-based; conditions: Homo sapiens
BJ [15] = assay: cytotoxicity toward Ras-transformed BJeLR fibroblasts, dose response, cell-based, alamar blue fluorescence, cherrypicked samples (AID 2631); assay type: functional; conditions: Homo sapiens;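 also: confirmatory dose-response assay in RAS-dependent BJ fibroblasts engineered with TERT, LT and ST, with cytotoxicity read by fluorescence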
[16] = Luminescence Cell-Based Dose Response HTS to Identify Inhibitors of 5'UTR Stem-Loop Driven Prion Protein mRNA Translation in H4 Neuroglioblastoma Cells. [Related pubchem assays: 1827 (Project Summary), 1813 (Primary HTS)]; assay type: functional
BJ [17] = assay: cytotoxicity toward BJ-TERT fibroblasts, dose response, cell-based, RAS-independent, luminescence (AID 1933); assay type: functional; conditions: Homo sapiens
[18] = inhibitors of HIV Env-driven cell fusion, dose response, cherry-pick (AID 652057); assay type: functional, cell-based
[19] = ZM109 Env clade C HIV-1 fusion inhibitors, dose response, HeLa effector, CEM target cells, luciferase, cherry-pick (AID 652058); assay type: functional, cell-based
[20] = inhibitors of clade B AD8 Env fusion, dose response, cell-based, cherry-pick (AID 652062); assay type: functional;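 also: luciferase signal from cell-cell fusion driven by HIV-1 clade B AD8 Env; potency is for inhibitors of fusion seen as a drop in luminescence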
[21] = off-target signal loss in HeLa-CEM21 co-culture – HeLa F-luc CTL cells, cherry-picked, counter-screen for HIV-1 Env fusion inhibitor project, dose response (AID 652040); assay type: functional, cell-based;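 also: potency for signal decrease marking cytotoxic or nonspecific inhibition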

## O=C(CCl)N1c2ccccc2CCc2ccccc21
[1]
  AC50: 5.54 µM (active)
[2]
  EC50: 4.26 µM (active)
[3]
  EC50: 2.36 µM (active)
A-375
  AC50: 42.7 µM (active)
[4]
  EC50: 2.09 µM (active)
[5]
  EC50: 5.37 µM (inconclusive)
Protein RecA
  EC50: 0.45 µM (active)
[6]
  AC50: 7.5 µM (active)

## Cc1ccc(S(=O)(=O)Cn2nnnc2C(C(C)C)N2CCc3ccccc3C2)cc1 (stereo not given)
HEK293 [7]
  EC50: > 59.6 µM (inactive)
HEK293 [8]
  EC50: > 59.6 µM (inactive)

## CC1=CC(C)(C)N(S(=O)(=O)c2ccc(C)cc2)c2cc(C)ccc21
[9]
  EC50: 1.95 µM (active)
[10]
  IC50: > 80 µM (inactive)
BJ [11]
  EC50: 1.3 µM (inconclusive)
[12]
  EC50: 4.98 µM (inconclusive)
[13]
  EC50: 4.44 µM (inconclusive)
BJ [14]
  EC50: 2.65 µM (active)
BJ [15]
  EC50: 0.353 µM (active)
[16]
  EC50: 9.84 µM (active)
BJ [17]
  EC50: 1.34 µM (active)

## C[C@@]12C(=O)N(CCc3c[nH]c4ccccc34)CC(=O)N1[C@H]1c3ccccc3OC[C@@H]1[C@@H]2c1ccccc1
[18]
  AC50: 2.67 µM (active)
[19]
  AC50: 2.7 µM (active)
HEK293 [7]
  EC50: > 59.7 µM (inactive)
[20]
  AC50: 4.46 µM (active)
[21]
  AC50: 3.73 µM (active)
HEK293 [8]
  EC50: > 59.7 µM (inactive)
